Laboratory results published in ChEMBL document CHEMBL3091293, “The synthesis and biodistribution of [(11)C]metformin as a PET probe to study hepatobiliary transport mediated by the multi-drug and toxin extrusion transporter 1 (MATE1) in vivo” (Bioorg Med Chem, 2013).

What was measured:
Assay type in all cases: ADME, organism-based; call rule not given here
[1] = Drug uptake in urinary bladder of ddY mouse at 127 +/- 35 MBq/kg, iv measured up to 4.5 mins by microPET image analysis; details: in vivo, 0.075 h
Mus musculus [2] = assay: Biodistribution in remaining body parts of ddY mouse at 5.6 +/- 2.1 MBq, iv measured per gram of tissue at 90 mins by gamma-ray counting analysis; details: in vivo, 1.5 h
Mus musculus [3] = assay: Biodistribution in remaining body parts of ddY mouse at 5.6 +/- 2.1 MBq, iv measured per gram of tissue at 60 mins by gamma-ray counting analysis; details: in vivo, 1 h
Mus musculus [4] = assay: Biodistribution in remaining body parts of ddY mouse at 5.6 +/- 2.1 MBq, iv measured per gram of tissue at 15 mins by gamma-ray counting analysis; details: in vivo, 0.25 h
Kidney [5] = assay: Biodistribution in kidney of ddY mouse at 14.6 +/- 2.1 MBq, iv measured per gram of tissue at 27.5 mins by PET image analysis; details: in vivo
Liver [6] = assay: Biodistribution in liver of ddY mouse at 14.6 +/- 2.1 MBq, iv measured per gram of tissue at 27.5 mins by PET image analysis; details: in vivo
Mus musculus [7] = assay: Biodistribution in remaining body parts of ddY mouse at 14.6 +/- 2.1 MBq, iv measured per gram of tissue at 14 mins by PET image analysis; details: in vivo
Liver [8] = assay: Biodistribution in liver of ddY mouse at 14.6 +/- 2.1 MBq, iv measured per gram of tissue at 14 mins by PET image analysis; details: in vivo
Mus musculus [9] = assay: Biodistribution in urinary bladder of ddY mouse at 14.6 +/- 2.1 MBq, iv measured per gram of tissue at 5 mins by PET image analysis; details: in vivo
Liver [10] = assay: Biodistribution in liver of ddY mouse at 14.6 +/- 2.1 MBq, iv measured per gram of tissue at 5 mins by PET image analysis; details: in vivo
Mus musculus [11] = assay: Biodistribution in urinary bladder/urine of ddY mouse at 5.6 +/- 2.1 MBq, iv measured per gram of tissue at 90 mins by gamma-ray counting analysis; details: in vivo, 1.5 h
Mus musculus [12] = assay: Biodistribution in small intestine wall of ddY mouse at 5.6 +/- 2.1 MBq, iv measured per gram of tissue at 90 mins by gamma-ray counting analysis; details: in vivo, 1.5 h
Lung [13] = assay: Biodistribution in lung of ddY mouse at 5.6 +/- 2.1 MBq, iv measured per gram of tissue at 90 mins by gamma-ray counting analysis; details: in vivo, 1.5 h
Kidney [14] = assay: Biodistribution in kidney of ddY mouse at 5.6 +/- 2.1 MBq, iv measured per gram of tissue at 90 mins by gamma-ray counting analysis; details: in vivo, 1.5 h
Liver [15] = assay: Biodistribution in liver of ddY mouse at 5.6 +/- 2.1 MBq, iv measured per gram of tissue at 90 mins by gamma-ray counting analysis; details: in vivo, 1.5 h
Mus musculus [16] = assay: Biodistribution in urinary bladder/urine of ddY mouse at 5.6 +/- 2.1 MBq, iv measured per gram of tissue at 60 mins by gamma-ray counting analysis; details: in vivo, 1 h
Thyroid gland [17] = assay: Biodistribution in thyroid of ddY mouse at 5.6 +/- 2.1 MBq, iv measured per gram of tissue at 60 mins by gamma-ray counting analysis; details: in vivo, 1 h
Lung [18] = assay: Biodistribution in lung of ddY mouse at 5.6 +/- 2.1 MBq, iv measured per gram of tissue at 60 mins by gamma-ray counting analysis; details: in vivo, 1 h
Pancreas [19] = assay: Biodistribution in pancreas of ddY mouse at 5.6 +/- 2.1 MBq, iv measured per gram of tissue at 45 mins by gamma-ray counting analysis; details: in vivo, 0.75 h
Thyroid gland [20] = assay: Biodistribution in thyroid of ddY mouse at 5.6 +/- 2.1 MBq, iv measured per gram of tissue at 45 mins by gamma-ray counting analysis; details: in vivo, 0.75 h
Mus musculus [21] = assay: Biodistribution in large intestine wall of ddY mouse at 5.6 +/- 2.1 MBq, iv measured per gram of tissue at 45 mins by gamma-ray counting analysis; details: in vivo, 0.75 h
Mus musculus [22] = assay: Biodistribution in small intestine wall of ddY mouse at 5.6 +/- 2.1 MBq, iv measured per gram of tissue at 45 mins by gamma-ray counting analysis; details: in vivo, 0.75 h
Mus musculus [23] = assay: Biodistribution in heart wall of ddY mouse at 5.6 +/- 2.1 MBq, iv measured per gram of tissue at 45 mins by gamma-ray counting analysis; details: in vivo, 0.75 h
Lung [24] = assay: Biodistribution in lung of ddY mouse at 5.6 +/- 2.1 MBq, iv measured per gram of tissue at 45 mins by gamma-ray counting analysis; details: in vivo, 0.75 h
Kidney [25] = assay: Biodistribution in kidney of ddY mouse at 5.6 +/- 2.1 MBq, iv measured per gram of tissue at 45 mins by gamma-ray counting analysis; details: in vivo, 0.75 h
Mus musculus [26] = assay: Biodistribution in urinary bladder/urine of ddY mouse at 5.6 +/- 2.1 MBq, iv measured per gram of tissue at 35 mins by gamma-ray counting analysis; details: in vivo
Pancreas [27] = assay: Biodistribution in pancreas of ddY mouse at 5.6 +/- 2.1 MBq, iv measured per gram of tissue at 35 mins by gamma-ray counting analysis; details: in vivo
Mus musculus [28] = assay: Biodistribution in heart wall of ddY mouse at 5.6 +/- 2.1 MBq, iv measured per gram of tissue at 35 mins by gamma-ray counting analysis; details: in vivo
Spleen = assay: Biodistribution in spleen of ddY mouse at 5.6 +/- 2.1 MBq, iv measured per gram of tissue at 35 mins by gamma-ray counting analysis; details: in vivo
Liver [29] = assay: Biodistribution in liver of ddY mouse at 5.6 +/- 2.1 MBq, iv measured per gram of tissue at 35 mins by gamma-ray counting analysis; details: in vivo
Pancreas [30] = assay: Biodistribution in pancreas of ddY mouse at 5.6 +/- 2.1 MBq, iv measured per gram of tissue at 30 mins by gamma-ray counting analysis; details: in vivo, 0.5 h
Thyroid gland [31] = assay: Biodistribution in thyroid of ddY mouse at 5.6 +/- 2.1 MBq, iv measured per gram of tissue at 30 mins by gamma-ray counting analysis; details: in vivo, 0.5 h
Lung [32] = assay: Biodistribution in lung of ddY mouse at 5.6 +/- 2.1 MBq, iv measured per gram of tissue at 30 mins by gamma-ray counting analysis; details: in vivo, 0.5 h
Liver [33] = assay: Biodistribution in liver of ddY mouse at 5.6 +/- 2.1 MBq, iv measured per gram of tissue at 30 mins by gamma-ray counting analysis; details: in vivo, 0.5 h
Thyroid gland [34] = assay: Biodistribution in thyroid of ddY mouse at 5.6 +/- 2.1 MBq, iv measured per gram of tissue at 15 mins by gamma-ray counting analysis; details: in vivo, 0.25 h
Kidney [35] = assay: Biodistribution in kidney of ddY mouse at 5.6 +/- 2.1 MBq, iv measured per gram of tissue at 15 mins by gamma-ray counting analysis; details: in vivo, 0.25 h
Liver [36] = assay: Biodistribution in liver of ddY mouse at 5.6 +/- 2.1 MBq, iv measured per gram of tissue at 15 mins by gamma-ray counting analysis; details: in vivo, 0.25 h
Liver [37] = assay: Metabolic stability in liver of mouse at 5 +/- 2.3 MBq/kg, iv measured until 30 to 60 mins by HPLC analysis in presence of MATE1 inhibitor pyrimethamine; details: in vivo

- Drug uptake [1]: Active
- Drug uptake (Mus musculus [2]): 36.827 %ID
- Drug uptake (Mus musculus [3]): 23.827 %ID
- Drug uptake (Mus musculus [4]): 54.581 %ID
- Drug uptake (Kidney [5]): 4.394 %ID
- Drug uptake (Liver [6]): 1.033 %ID
- Drug uptake (Mus musculus [7]): 36.878 %ID
- Drug uptake (Liver [8]): 1.796 %ID
- Drug uptake (Mus musculus [9]): 37.19 %ID
- Drug uptake (Liver [10]): 4.327 %ID
- Drug uptake (Mus musculus [11]): 59.056 %ID
- Drug uptake (Mus musculus [12]): 1.604 %ID
- Drug uptake (Lung [13]): 0.128 %ID
- Drug uptake (Kidney [14]): 0.236 %ID
- Drug uptake (Liver [15]): 1.288 %ID
- Drug uptake (Mus musculus [16]): 69.767 %ID
- Drug uptake (Thyroid gland [17]): 0.005 %ID
- Drug uptake (Lung [18]): 0.136 %ID
- Drug uptake (Pancreas [19]): 0.117 %ID
- Drug uptake (Thyroid gland [20]): 0.002 %ID
- Drug uptake (Mus musculus [21]): 0.208 %ID
- Drug uptake (Mus musculus [22]): 2.128 %ID
- Drug uptake (Mus musculus [23]): 0.029 %ID
- Drug uptake (Lung [24]): 0.135 %ID
- Drug uptake (Kidney [25]): 0.165 %ID
- Drug uptake (Mus musculus [26]): 74.695 %ID
- Drug uptake (Pancreas [27]): 0.196 %ID
- Drug uptake (Mus musculus [28]): 0.049 %ID
- Drug uptake (Spleen): 0.145 %ID
- Drug uptake (Liver [29]): 1.478 %ID
- Drug uptake (Pancreas [30]): 0.405 %ID
- Drug uptake (Thyroid gland [31]): 0.009 %ID
- Drug uptake (Lung [32]): 0.218 %ID
- Drug uptake (Liver [33]): 2.319 %ID
- Drug uptake (Thyroid gland [34]): 0.008 %ID
- Drug uptake (Kidney [35]): 1.181 %ID
- Drug uptake (Liver [36]): 3.817 %ID
- Stability (Liver [37]): Stable
SMILES: CN([11CH3])C(=N)NC(=N)N
